TGI data for 10 compounds are collected here from PubChem BioAssay (NCI).

Test systems include NCI-H522 lung; SK-MEL-2 melanoma; KM12 colon; MOLT-4 leukemia; SK-MEL-5 melanoma; HT29 colon; COLO 205 colon; HCT-15 colon; 786-0 renal; HOP-62 NSCLC; OVCAR-3 ovarian; M14 melanoma; RPMI-8226 leukemia; SR leukemia; UACC-62 melanoma.
What all share (test): NCI tumour cell line growth inhibition, 48 h

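Tested at 5 concentrations; 48 h exposure; 96-well plates; endpoints linearly interpolated, else capped at highest concentration. TGI: concentration producing complete growth inhibition.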

`CC/C(=N/O)c1ccc2[nH]c3c(C)cc([N+](=O)[O-])c(C)c3c2c1`: the TGI in the assay on NCI-H522 lung, in the assay on SK-MEL-2 melanoma, with KM12 colon, in the assay on MOLT-4 leukemia, in the assay on SK-MEL-5 melanoma and in the assay with HT29 colon was > 100 µM in each case. Moreover, the TGI in the assay with COLO 205 colon, in the assay on HCT-15 colon, in the assay with 786-0 renal, in the assay with HOP-62 NSCLC, in the assay with OVCAR-3 ovarian and in the assay with M14 melanoma was > 100 µM each time. For the same compound, the TGI with RPMI-8226 leukemia and with SR leukemia was > 100 µM each time.
As for `C[C@@]1(Cc2ccccc2)C(=O)N2[C@@H](CO)C(c3ccccc3)O[C@]2(C)c2ccccc21` (some centres not stated), the TGI in the assay with NCI-H522 lung, in the assay on SK-MEL-2 melanoma, in the assay with KM12 colon, with MOLT-4 leukemia, in the assay with SK-MEL-5 melanoma and in the assay on COLO 205 colon was > 100 µM each time. For the same compound, the TGI with HCT-15 colon, with 786-0 renal, in the assay on HOP-62 NSCLC, with OVCAR-3 ovarian, in the assay on M14 melanoma and in the assay with UACC-62 melanoma was > 100 µM in each case. In addition, the TGI in the assay with RPMI-8226 leukemia and with SR leukemia was > 100 µM each time.
Regarding `CC12C(=C(C#N)C(=N)N1c1ccc(Cl)c(Cl)c1)C=C(O)CC2SCCS(=O)(=O)O` (configuration not stated), the TGI with NCI-H522 lung, with SK-MEL-2 melanoma, in the assay with KM12 colon, in the assay with MOLT-4 leukemia, in the assay on SK-MEL-5 melanoma and in the assay with HT29 colon was > 100 µM each time. For the same compound, the TGI in the assay on COLO 205 colon, with HCT-15 colon, with 786-0 renal, in the assay with HOP-62 NSCLC, in the assay on OVCAR-3 ovarian and with UACC-62 melanoma was > 100 µM throughout. For the same compound, the TGI with RPMI-8226 leukemia and in the assay on SR leukemia was > 100 µM in each case.
For the compound `C[C@@H]1OC2(O)[C@H]3CCCN3S(=O)(=O)CCN2C1=O` (some centres not stated), the TGI in the assay with NCI-H522 lung, in the assay with KM12 colon, in the assay with MOLT-4 leukemia, in the assay on SK-MEL-5 melanoma, in the assay with HT29 colon and in the assay on COLO 205 colon was > 100 µM throughout. The TGI with HCT-15 colon, with 786-0 renal, with HOP-62 NSCLC, in the assay with OVCAR-3 ovarian, with M14 melanoma and with UACC-62 melanoma was > 100 µM each time. Moreover, the TGI in the assay on RPMI-8226 leukemia and with SR leukemia was > 100 µM throughout.
For the compound `N#C/C(=C\c1cc(O)ccc1O)C(N)=O`, the TGI with NCI-H522 lung was 41 µM; in the assay with SK-MEL-2 melanoma, > 100 µM; with KM12 colon it was > 100 µM; with MOLT-4 leukemia, 60.1 µM; in the assay with HT29 colon, > 100 µM; in the assay with COLO 205 colon it was > 100 µM. The TGI was > 100 µM with HCT-15 colon; > 100 µM in the assay on 786-0 renal; > 100 µM in the assay on HOP-62 NSCLC; > 100 µM in the assay with OVCAR-3 ovarian; > 100 µM in the assay on M14 melanoma; 88.1 µM with UACC-62 melanoma. In the assay on RPMI-8226 leukemia, the TGI stood at 65.6 µM.
For `Cc1nc(-n2nc(-c3ccccc3)cc2-c2ccccc2)sc1C(=O)/C=C/c1ccc(Cl)c(Cl)c1`, the TGI with NCI-H522 lung was 21.6 µM; in the assay with SK-MEL-2 melanoma, > 100 µM; in the assay with KM12 colon it was 20.8 µM; in the assay on MOLT-4 leukemia, 52.5 µM; in the assay on COLO 205 colon, > 100 µM; with HCT-15 colon it was 39.9 µM. In addition, the TGI in the assay on 786-0 renal was 33.5 µM; with HOP-62 NSCLC, > 100 µM; with OVCAR-3 ovarian, 54.2 µM; in the assay with M14 melanoma it was 40.5 µM; in the assay on UACC-62 melanoma, 19.9 µM; with SR leukemia, 76.8 µM.
Take `C[C@@H]1O[C@]2(O)[C@@H]3CCCN3S(=O)(=O)CCN2C1=O`: the TGI with NCI-H522 lung, in the assay on KM12 colon, with MOLT-4 leukemia, in the assay with SK-MEL-5 melanoma, in the assay on HT29 colon and with COLO 205 colon was > 100 µM in each case. In addition, the TGI with HCT-15 colon, with 786-0 renal, in the assay on HOP-62 NSCLC, with OVCAR-3 ovarian, in the assay with M14 melanoma and with UACC-62 melanoma was > 100 µM in each case. Besides, the TGI in the assay with RPMI-8226 leukemia and in the assay on SR leukemia was > 100 µM throughout.
As to `CCN(CC)CCC1(C2CCCCC2)CCC(=O)NC1=O` (configuration not stated), the TGI in the assay on NCI-H522 lung, with SK-MEL-2 melanoma, in the assay on KM12 colon, in the assay with MOLT-4 leukemia, in the assay with SK-MEL-5 melanoma and in the assay with HT29 colon was > 100 µM each time. In addition, the TGI in the assay on COLO 205 colon, with HCT-15 colon, in the assay with 786-0 renal, with HOP-62 NSCLC, in the assay with OVCAR-3 ovarian and in the assay on M14 melanoma was > 100 µM throughout. Moreover, the TGI in the assay on UACC-62 melanoma and with RPMI-8226 leukemia was > 100 µM throughout.
As for `COc1ccccc1-n1c(N)c2c(C)c(-c3ccccc3)[nH]c2nc1=S`, the TGI in the assay with NCI-H522 lung, in the assay with SK-MEL-2 melanoma, in the assay with KM12 colon, with MOLT-4 leukemia, with SK-MEL-5 melanoma and with COLO 205 colon was > 100 µM throughout. Besides, the TGI with HCT-15 colon, in the assay with 786-0 renal, with HOP-62 NSCLC, in the assay with OVCAR-3 ovarian, in the assay on M14 melanoma and with UACC-62 melanoma was > 100 µM each time. In addition, the TGI with RPMI-8226 leukemia and in the assay with SR leukemia was > 100 µM each time.
Regarding `CC1(C)OCN(c2ccc(S(N)(=O)=O)cc2)Cn2c1nc1ccccc12`, the TGI in the assay with NCI-H522 lung, in the assay with SK-MEL-2 melanoma, in the assay on KM12 colon, in the assay on MOLT-4 leukemia, in the assay on HT29 colon and in the assay with COLO 205 colon was > 100 µM throughout. The TGI in the assay on HCT-15 colon, with 786-0 renal, in the assay on HOP-62 NSCLC, with OVCAR-3 ovarian, in the assay on M14 melanoma and with UACC-62 melanoma was > 100 µM throughout. The TGI with RPMI-8226 leukemia and in the assay with SR leukemia was > 100 µM each time.
